# Measured values taken from ChEMBL document CHEMBL1133848, “Novel synthesis and RNA-binding properties of aminoglycoside dimers conjugated via a naphthalene diimide-based intercalator” (Bioorg Med Chem Lett, 2001).
# Test: Dissociation constant with dimeric 16S rRNA RNA construct B
row,Kd [nM],SMILES
1,350,NC[C@@H]1O[C@H](O[C@H]2[C@@H](O)[C@H](O[C@@H]3[C@@H](O)[C@H](N)C[C@H](N)[C@H]3O[C@H]3O[C@H](CN)[C@@H](O)[C@H](O)[C@H]3N)O[C@@H]2CO)[C@H](N)[C@@H](O)[C@@H]1O [FRAMYCETIN]
2,1680,NC[C@H]1O[C@H](O[C@H]2[C@H](O)[C@@H](O[C@H]3O[C@H](CO)[C@@H](O)[C@H](N)[C@H]3O)[C@H](N)C[C@@H]2N)[C@H](N)C[C@@H]1O [TOBRAMYCIN]
3,1110,NC[C@H]1O[C@H](O[C@H]2[C@H](O)[C@@H](O[C@H]3O[C@H](CSCCOCCSCC(O)CN4C(=O)c5ccc6c7c(ccc(c57)C4=O)C(=O)N(CC(O)CSCCOCCSC[C@H]4O[C@H](O[C@@H]5[C@@H](O)[C@H](O[C@H]7O[C@H](CN)[C@@H](O)C[C@H]7N)[C@@H](N)C[C@H]5N)[C@H](O)[C@@H](N)[C@@H]4O)C6=O)[C@@H](O)[C@H](N)[C@H]3O)[C@H](N)C[C@@H]2N)[C@H](N)C[C@@H]1O (some centres undefined)
4,20,NCC1O[C@H](O[C@H]2[C@@H](O)[C@H](O[C@H]3[C@H](O)[C@@H](N)C[C@@H](N)[C@@H]3O[C@H]3O[C@H](CN)[C@@H](O)[C@H](O)[C@H]3N)O[C@@H]2CSCCOCCSSCCOCCSC[C@H]2O[C@@H](O[C@H]3[C@H](O)[C@@H](N)C[C@@H](N)[C@@H]3O[C@H]3O[C@H](CN)[C@@H](O)[C@H](O)[C@H]3N)[C@H](O)[C@@H]2O[C@@H]2OC(CN)[C@H](O)[C@@H](O)[C@@H]2N)[C@H](N)[C@@H](O)[C@@H]1O (some centres undefined)
5,290,NCC1O[C@H](O[C@H]2[C@@H](O)[C@H](O[C@H]3[C@H](O)[C@@H](N)C[C@@H](N)[C@@H]3O[C@H]3O[C@H](CN)[C@@H](O)[C@H](O)[C@H]3N)O[C@@H]2CSCCOCCSSCCOCCSC[C@H]2O[C@H](O[C@@H]3[C@@H](O)[C@H](O[C@H]4O[C@H](CN)[C@@H](O)C[C@H]4N)[C@@H](N)C[C@H]3N)[C@H](O)[C@@H](N)[C@@H]2O)[C@H](N)[C@@H](O)[C@@H]1O (some centres undefined)
6,1810,NC[C@H]1O[C@H](O[C@H]2[C@H](O)[C@@H](O[C@H]3O[C@H](CSCCOCCSSCCOCCSC[C@H]4O[C@H](O[C@@H]5[C@@H](O)[C@H](O[C@H]6O[C@H](CN)[C@@H](O)C[C@H]6N)[C@@H](N)C[C@H]5N)[C@H](O)[C@@H](N)[C@@H]4O)[C@@H](O)[C@H](N)[C@H]3O)[C@H](N)C[C@@H]2N)[C@H](N)C[C@@H]1O [Tobramycin-Tobramycin]
7,280,CN(C)C1=CC2Oc3cc(N(C)C)ccc3C(c3ccc(C(=O)NC[C@@H]4O[C@H](O[C@H]5[C@@H](O)[C@H](O[C@@H]6[C@H](O)[C@H](N)C[C@@H](N)[C@H]6O[C@H]6O[C@@H](CO)[C@@H](O)[C@H](O)[C@@H]6N)O[C@@H]5CO)[C@H](N)[C@H](O)[C@@H]4O)cc3C(=O)O)=C2C=C1 (some centres undefined)
8,150,NC[C@@H]1O[C@H](O[C@H]2[C@@H](O)[C@H](O[C@H]3[C@H](O)[C@@H](N)C[C@@H](N)[C@@H]3O[C@H]3O[C@H](CN)[C@@H](O)[C@H](O)[C@H]3N)O[C@@H]2CSCCOCCSCC(O)CN2C(=O)c3ccc4c5c(ccc(c35)C2=O)C(=O)N(CC(O)CSCCOCCSC[C@H]2O[C@H](O[C@@H]3[C@@H](O)[C@H](O[C@H]5O[C@H](CN)[C@@H](O)C[C@H]5N)[C@@H](N)C[C@H]3N)[C@H](O)[C@@H](N)[C@@H]2O)C4=O)[C@H](N)[C@@H](O)[C@@H]1O (some centres undefined)
9,10,NC[C@@H]1O[C@H](O[C@@H]2[C@H](O[C@@H]3OC(CSCCOCCSCC(O)CN4C(=O)c5ccc6c7c(ccc(c57)C4=O)C(=O)N(CC(O)CSCCOCCSC[C@H]4O[C@@H](O[C@H]5[C@H](O)[C@@H](N)C[C@@H](N)[C@@H]5O[C@H]5O[C@H](CN)[C@@H](O)[C@H](O)[C@H]5N)[C@H](O)[C@@H]4O[C@H]4O[C@@H](CN)[C@@H](O)[C@H](O)[C@H]4N)C6=O)[C@@H](O[C@@H]4O[C@H](CN)[C@H](O)C(O)[C@H]4N)[C@H]3O)[C@@H](O)[C@@H](N)C[C@@H]2N)[C@@H](N)[C@@H](O)[C@@H]1O (some centres undefined)
